Values quoted from earlier work, collected in PMC3138524 (European journal of pharmacology, 2011).
Positions of bridges follow the written chain, without caps; N, C: chain ends. Non-standard residues stand in square brackets, D forms with d. d2Nal = N[C@H](Cc1ccc2ccccc2c1)C(=O)O; Pen = CC(C)(S)[C@H](N)C(=O)O; Nle = CCCC[C@H](N)C(=O)O

Assays:
Assay type in all cases: cell-based, HEK293
MC4R [1] = target: T1, MC4R (Homo sapiens, UniProt P32245); settings: read-out: Functional Assays cAMP EC50; n = 2
T1 sequence (P32245 whole entry): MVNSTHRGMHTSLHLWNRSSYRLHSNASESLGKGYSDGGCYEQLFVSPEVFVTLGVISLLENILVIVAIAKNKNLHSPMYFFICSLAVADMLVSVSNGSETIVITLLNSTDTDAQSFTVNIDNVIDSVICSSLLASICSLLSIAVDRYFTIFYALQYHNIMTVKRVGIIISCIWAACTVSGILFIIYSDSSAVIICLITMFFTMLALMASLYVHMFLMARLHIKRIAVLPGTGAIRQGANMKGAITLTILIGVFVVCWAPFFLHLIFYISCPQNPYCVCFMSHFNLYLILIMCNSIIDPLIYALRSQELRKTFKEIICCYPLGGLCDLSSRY

MC5R [2] = target: T2, MC5R (Homo sapiens, UniProt P33032); settings: read-out: Functional Assays cAMP EC50; n = 2
T2 sequence (P33032 whole entry): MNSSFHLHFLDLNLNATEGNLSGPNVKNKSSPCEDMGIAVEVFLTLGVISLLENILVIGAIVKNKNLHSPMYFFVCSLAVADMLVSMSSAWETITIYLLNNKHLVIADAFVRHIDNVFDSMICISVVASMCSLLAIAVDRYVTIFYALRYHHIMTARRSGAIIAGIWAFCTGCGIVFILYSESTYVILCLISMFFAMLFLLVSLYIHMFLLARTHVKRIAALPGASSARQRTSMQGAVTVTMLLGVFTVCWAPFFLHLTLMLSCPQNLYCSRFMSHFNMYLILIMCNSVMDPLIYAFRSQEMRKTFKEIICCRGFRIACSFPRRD

MC3R [3] = target: T3, MC3R (Homo sapiens, UniProt P41968); settings: read-out: Binding Affinities IC50; n = 2
T3 sequence (P41968 whole entry): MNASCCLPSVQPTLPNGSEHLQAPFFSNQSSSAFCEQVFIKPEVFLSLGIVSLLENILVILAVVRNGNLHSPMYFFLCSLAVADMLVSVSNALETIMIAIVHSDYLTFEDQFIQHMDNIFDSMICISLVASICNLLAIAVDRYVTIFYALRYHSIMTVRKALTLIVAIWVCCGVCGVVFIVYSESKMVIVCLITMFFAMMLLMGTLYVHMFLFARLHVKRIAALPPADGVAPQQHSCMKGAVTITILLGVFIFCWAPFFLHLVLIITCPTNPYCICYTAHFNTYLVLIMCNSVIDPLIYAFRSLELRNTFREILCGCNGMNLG

MC4R [4] = target: T1, MC4R; settings: read-out: Binding Affinities IC50; n = 2
MC3R [5] = target: T3, MC3R; settings: read-out: Functional Assays cAMP EC50; n = 2
MC5R [6] = target: T2, MC5R; settings: read-out: Binding Affinities IC50; n = 2

Molecule	EC50 (MC4R [1])	EC50 (MC5R [2])	IC50 (MC3R [3])	IC50 (MC4R [4])	other results
N=C(N)NCCC[C@@H]1NC(=O)[C@@H](Cc2ccccc2)NC(=O)[C@@H]2CCCN2C(=O)[C@@H](NC(=O)[C@H](N)Cc2ccccc2)CC(=O)NCCCC[C@@H](C(N)=O)NC(=O)[C@H](Cc2c[nH]c3ccccc23)NC1=O [compound 3, D-Phe-c[Asp-Pro-D-Phe-Arg-Trp-Lys]-NH2]	> 10000 nM	> 1000 nM	–	–	–
Ac-Nle-c[Asp-Aba-D-Phe-Arg-Trp-Lys]-NH2 [compound 4]	–	–	50 nM	–	–
Ac-[Nle][Pen]EH[d2Nal]RWCPKD-NH2 (disulfide 2-8) [compound 5]	–	–	3 nM	–	–
Ac-c[Cys-His-D-Phe-Cys]-N^α-Gubu-D-Trp-NH2 [compound 7]	> 1000 nM	–	–	0.7 nM	–
Ac-c[Cys-His-D-Phe-N^α-Gubu-Cys]-Trp-NH2 [compound 6]	–	–	–	1.8 nM	–
Tyr-Val-Nle-Gly-His-D-Nal(2′)-Arg-Trp-Asp-Arg-Phe-Gly-NH2 [compound 1]	–	> 10000 nM	0.84 nM	–	EC50 (MC3R [5]): > 10000 nM; IC50 (MC5R [6]): 1 nM
